Where two headings read alike, the source gives them in different places.
Legend:
Assay type in all cases: cell-based
[1] = Hoechst 33342 nuclear staining (48 h read-out)
Description: (§1) A) Hoechst 33342 Nuclear Staining
(§2) This assay is performed in 96 well tissue culture plates. Appropriate number of cells (adherent cells: 3-5*10^3, suspension cells: 8-10*10^3) are being seeded out in 80 μl complete medium. Adherent cells are incubated for 24 h for proper spreading out before addition of test compounds while suspension cells are immediately treated with test compounds after seeding out. The test compounds are added in 20 μl complete medium containing max 5% DMSO. The final compound concentrations in the assays are in the range of 0.001 μM-10 μM. After 24 h or 48 h incubation at culture conditions, 10 μl medium containing Hoechst 33342 dye (Sigma B-2261) at 2-5 μg/ml are added to each well. The assay plates are then further incubated for 30 minutes and subsequently analyzed with a standard inverted fluorescence microscope.
(§3) The readout allows the determination of the fraction of apoptotic nuclei as well as other morphological criteria specific for apoptosis as a function of the treatment. The scores A, B, C and D are explained at the end of the Table.

tumor cells [2] = assay: Hoechst 33342 nuclear staining (48 h read-out)
Description: as §1, §2, §3

[3] = MTS proliferation assay (72 h read-out); conditions: MRC5 cells
Description: (§4) B) MTS Proliferation Assay
(§5) The assay is performed in 96 well tissue culture plates. The cells (range: 1.5*10^3-10^4) are seeded out in 80 μl complete medium 24 h prior to compound treatment. The test compounds are added in 20 μl complete medium containing max 5% DMSO. The final compound concentrations in the assays are in the range of 0.001 μM-10 μM. The assay plates are incubated for 72 h at culture conditions. The MTS reagent is prepared according to the manufacturer's protocol (Promega G1111). 20 μl MTS reagent are added to each well; the assay plates are quickly spun and incubated for another 3 h at culture conditions. Subsequently, the plates are shortly shaked and absorption measured with a microplate-reader at 492 nm. The scores A, B, C and D are explained at the end of the Table.

tumor cells [4] = assay: MTS proliferation assay (72 h read-out)
Description: as §4, §5

[5] = Mitochondrial membrane potential, JC-1 (read-out 48 h); conditions: PBL, JC-1, 48 h
Description: (§6) D) Mitochondrial Membrane Potential
as §2, with “The final compound concentrations in the assays are in the range of 0.001 μM-10 μM.” left out, “JC-1 (Molecular Probes, T-3168)” for “Hoechst 33342 dye (Sigma B-2261)”, “microscope by using the FITC and TRITC filters.” for “microscope.”
(§7) The readout allows the determination of the fraction of cells which show a dissipation of the mitochondrial membrane potential strongly indicating an apoptotic cell death as a function of the treatment. The scores A, B, C and D are explained at the end of the Table.

tumor cells [6] = assay: as above; conditions: JC-1, 48 h
Description: as §6
as §2, with “The final compound concentrations in the assays are in the range of 0.001 μM-10 μM.” left out, “JC-1 (Molecular Probes, T-3168)” for “Hoechst 33342 dye (Sigma B-2261)”, “microscope by using the FITC and TRITC filters.” for “microscope.”
as §7

[7] = MRC5 cells, read-out: Hoechst 33342 nuclear staining EC50, MRC5
[8] = PBL, read-out: Hoechst 33342 nuclear staining EC50, PBL
[9] = HeLa cells, read-out: Hoechst 33342 nuclear staining EC50, HeLa
[10] = Jily cells, read-out: Hoechst 33342 nuclear staining EC50, Jily
[11] = Jurkat cells, read-out: Hoechst 33342 nuclear staining EC50, Jurkat
[12] = HT1080 cells, read-out: MTS proliferation assay IC50, HT1080
[13] = HeLa cells, read-out: MTS proliferation assay IC50, HeLa
[14] = Jily cells, read-out: MTS proliferation assay IC50, Jily
[15] = Jurkat cells, read-out: MTS proliferation assay IC50, Jurkat
[16] = HeLa cells, read-out: Mitochondrial membrane potential (read-out 48 h) HeLa
[17] = Jily cells, read-out: Mitochondrial membrane potential (read-out 48 h) Jily
[18] = Jurkat cells, read-out: Mitochondrial membrane potential (read-out 48 h) Jurkat
[19] = MCF7 cells, read-out: Mitochondrial membrane potential (read-out 48 h) MCF7

Compound | EC50 [1, 8] | EC50 (tumor cells [2]; [9]) | EC50 (tumor cells [2]; [10]) | EC50 (tumor cells [2]; [11]) | IC50 (tumor cells [4]; [12]) | IC50 (tumor cells [4]; [13]) | IC50 (tumor cells [4]; [14]) | IC50 (tumor cells [4]; [15]) | EC50 [5] | EC50 (tumor cells [6]; [16]) | EC50 (tumor cells [6]; [17]) | EC50 (tumor cells [6]; [18]) | EC50 (tumor cells [6]; [19]) | EC50 [1, 7] | IC50 [3]
CCOc1ccccc1C(=O)c1oc2ccc(I)cc2c1N [Example 43] | > 1000 nM | > 1000 nM | > 1000 nM | > 1000 nM | > 1000 nM | > 1000 nM | > 1000 nM | > 1000 nM | > 1000 nM | > 1000 nM | > 1000 nM | > 1000 nM | > 1000 nM | > 1000 nM | > 1000 nM
COc1ccc2oc(C(=O)c3cc(F)ccc3N3CCCCC3)cc2c1 [Example 95] |  |  |  |  | 10 to 100 nM | 10 to 100 nM | 10 to 100 nM | 10 to 100 nM |  |  |  |  |  |  | 10 to 100 nM
CCOc1ccc2oc(C(=O)c3cc(F)ccc3N3CC=CCC3)cc2c1 [Example 111] | > 1000 nM | 10 to 100 nM | < 10 nM | < 10 nM |  |  |  |  | > 1000 nM | 10 to 100 nM | < 10 nM | < 10 nM | 10 to 100 nM | 10 to 100 nM | 
O=C(c1cc2cc(O)ccc2o1)c1cc(F)ccc1N1CC=CCC1 [Example 112] | > 1000 nM | 10 to 100 nM | 10 to 100 nM | 10 to 100 nM |  |  |  |  | > 1000 nM | 10 to 100 nM | 10 to 100 nM | 10 to 100 nM | 10 to 100 nM | 10 to 100 nM | 
N#Cc1cnc2sc(C(=O)c3cc(F)ccc3N3CCOCC3)c(N)c2c1 [Example 136] |  | > 1000 nM |  | 100 to 1000 nM | 100 to 1000 nM | 100 to 1000 nM | 100 to 1000 nM | 100 to 1000 nM |  | > 1000 nM | 100 to 1000 nM | 100 to 1000 nM | > 1000 nM | > 1000 nM | 

Further lines, with some results ahead:

EC50 [1, 8] | EC50 (tumor cells [2]; [9]) | EC50 (tumor cells [2]; [10]) | EC50 (tumor cells [2]; [11]) | IC50 (tumor cells [4]; [12]) | IC50 (tumor cells [4]; [13]) | IC50 (tumor cells [4]; [14]) | IC50 (tumor cells [4]; [15]) | EC50 [5] | EC50 (tumor cells [6]; [16]) | EC50 (tumor cells [6]; [17]) | EC50 (tumor cells [6]; [18]) | EC50 (tumor cells [6]; [19]) | Compound | EC50 [1, 7] | IC50 [3]
> 1000 nM | > 1000 nM | > 1000 nM | > 1000 nM | > 1000 nM | > 1000 nM | > 1000 nM | > 1000 nM | > 1000 nM | > 1000 nM | > 1000 nM | > 1000 nM | > 1000 nM | CCOc1ccc(C(=O)O)cc1C(=O)c1oc2ccc(Cl)cc2c1N [Example 44] | > 1000 nM | > 1000 nM
> 1000 nM | > 1000 nM | > 1000 nM | > 1000 nM | > 1000 nM | > 1000 nM | > 1000 nM | > 1000 nM | > 1000 nM | > 1000 nM | > 1000 nM | > 1000 nM | > 1000 nM | CCOc1ccccc1C(=O)c1oc2ccc(F)cc2c1N [Example 45] | > 1000 nM | > 1000 nM
> 1000 nM | > 1000 nM | > 1000 nM | > 1000 nM | > 1000 nM | > 1000 nM | > 1000 nM | > 1000 nM | > 1000 nM | > 1000 nM | > 1000 nM | > 1000 nM | > 1000 nM | CCOc1ccc(S(=O)(=O)N(C)C)cc1C(=O)c1oc2ccc(Cl)cc2c1N [Example 46] | > 1000 nM | > 1000 nM

Source: patent US8486996B2, “Aroylfuranes and aroylthiophenes” (Basilea Pharmaceutica AG, priority 2006, dated 2013)
